Source: patent US20230167068A1, “BENZOPYRAZOLE COMPOUND” (MEDSHINE DISCOVERY INC., priority 2019, published 2023)
pEC50, pIC50: −log10 of the molar value.

Key:
[1] = system: hMMP-1 promoter reporter gene in Hela cells (GR transcription repression); experiment: hMMP1 transcription repression activity, luciferase reporter gene screening system (hMMP1 GR transcription repression test); assay type: cell-based; conditions: Homo sapiens; for Emax: HeLa, maximum effect value, positive control 1000 nM dexamethasone, read-out: TR (hMMP1 transcription inhibition activity) Effect; for pIC50: absolute IC50, HeLa hMMP-1/luciferase cells, 10 nM PMA, 18 h, max concentration 1000 nM, read-out: TR (hMMP1 transcription inhibition activity) IC50
Description: Human MMP-1 promoter region (containing two AP-1 binding sites and two PEA3 sites, a total of 249bp, GenBank catalog #AF023338) was cloned into the upstream of luciferase reporter gene. The hMMP-1 promoter reporter gene was constructed and transfected into Hela cells so that luciferase production could be easily detected. A stable recombinant hMMP-⅟luciferase cell line was used for the development and validation of this experiment.
• [0377] 1) All the culture media were carefully aspirated, and the cell layer was rinsed gently with an appropriate amount of DPBS, and then aspirated. • [0378] 2) An appropriate amount of 0.05% Typsine EDTA was added and incubated in a CO2 incubator for 3-5 minutes to digest the cells. • [0379] 3) The cells were resuspended with an appropriate amount of cell culture medium. • [0380] 4) The required amount of cells were calculated. The cell concentration was 5x10^3 cells/well. • [0381] 5) The cell suspension was diluted with appropriate cell culture medium. • [0382] 6) The cell suspension was dispensed into a disposable sterile loading slot. • [0383] 7) Inoculated 30µL per well into a 384-well plate. • [0384] 8) The cell plate was placed in a 37° C. 5% CO2 incubator for 18-24 hours.
The final DMSO concentration was 0.1%. PMA needs to be protected from light during use.
hMMP1 GR transcription repression activity test • [0395] 1) Inoculated cells: Fresh cells were inoculated into 384 white experimental plates at 5x10^3 cells/30µL/well, and incubated in a 5% CO2 incubator at 37° C. for 24 hours. • [0396] 2) Compound preparation: The compound plate was prepared before the experiment, and the reference compound (dexamethasone) and the tested compound of 10x concentration were prepared. Finally, the experimental plate of 10× concentration compound was obtained. • [0397] 3) Added compound: 3.3 µL of 10x compound was transferred with Bravo and added to cell plate. Incubated for 18 hours in a 5% CO2 incubator at 37° C. • [0398] 4) 30 µL of Bright-Glo fluorescent detection reagent was transferred to the cell plate. • [0399] 5) Centrifugal incubation for 2 minutes. • [0400] 6) The fluorescence value was measured with the Envision plate reader.
Positive Control: 10 nM PMA + 1000 nM dexamethasone (0.1% DMSO)
Negative control: 10 nM PMA (0.1% DMSO)
(§1) Test compound: Maximum concentration of 1000 nM, 4-fold dilution, 10 wells in total, repeated.
(§2) Dexamethasone: Maximum concentration of 1000 nM, 4-fold dilution, 10 wells in total, repeated.
The graphing software GraphPad Prism5 was used to create the concentration curves of the test compounds and calculate the IC50 values.

[2] = system: MMTV promoter luciferase reporter in HeLa cell line (GR transcription activation); experiment: MMTV transcription activation activity, luciferase reporter gene screening system (MMTV_GR transcription activation experiment); assay type: cell-based; conditions: Homo sapiens; for Emax: HeLa, maximum effect value, positive control 1000 nM dexamethasone, read-out: TA (MMTV transcription activation activity) Effect; for pEC50: absolute EC50, HeLa MMTV-luciferase cells, 18 h, max concentration 1000 nM, read-out: TA (MMTV transcription activation activity) EC50
Description: The promoter of mouse mammary tumor virus (MMTV) contains specific binding sites for activating GRs (GREs). To determine the activity of the compounds, a reporter gene (luciferase) was inserted after the MMTV promoter, and this construct was expressed in a stable manner in the genome of the HeLa cell line. MMTV promoter was activated by the test compounds to induce the expression of luciferase, and its activity was detected by luminescence measurement.
• [0442] 1) All the culture media were carefully aspirated, the cell layer was rinsed gently with an appropriate amount of DPBS, and then aspirated. • [0443] 2) An appropriate amount of 0.05% Typsine EDTA was added and incubated in a CO2 incubator for 3-5 minutes to digest the cells. • [0444] 3) The cells were resuspended with an appropriate amount of cell culture medium. • [0445] 4) The amount of cells required was calculated, and the cell concentration was 4×10^3 cells/well. • [0446] 5) The cell suspension was diluted with appropriate cell culture medium. • [0447] 6) Cell suspension was dispensed into a disposable sterile loading slot. • [0448] 7) Inoculated 30 µL per well into a 384-well plate. • [0449] 8) The cell plate was placed in a 37° C. 5% CO2 incubator for 18-24 hours.
Compounds were diluted with DMSO to 1 mM, 0.25 mM, 0.0625 mM, 0.015625 mM, 0.0039 mM, 0.0009765 mM, 0.000244 mM, 0.000061 mM, 0.00001526 mM and 0.0000038125 mM, then diluted 25-fold with serum culture medium treated with activated carbon, and finally 4x concentration compound experimental plate was obtained, prepared before use.
The final DMSO experimental concentration was 0.1%.
MMTV_GR transcription activation activity experiment • [0458] 1) Inoculated cells: Fresh cells were inoculated into 384 white transparent bottom experimental plates at 4×10^3 cells/30 µL/well, and incubated at 37° C. 5% CO2 incubator for 24 hours. • [0459] 2) Compound preparation: The compound plate was prepared before the experiment, and the reference compound (dexamethasone) and the test compound of 4x concentration were prepared. Finally, the experimental plate of 4x concentration compound was obtained. • [0460] 3) Added compound: 10 µL of 4x compound was transferred with Bravo and added to cell plate. Incubated for 18 hours in a 37° C. 5% CO2 incubator. • [0461] 4) 30 µL of Bright-Glo fluorescent detection reagent was transferred to the cell plate. • [0462] 5) Centrifugal incubation for 2 minutes. • [0463] 6) The fluorescence value was measured with the Envision plate reader.
Positive control: 1000 nM dexamethasone (0.1% DMSO)
Negative control: 0.1% DMSO
as §1, §2
The graphing software GraphPad Prism5 was used to create the concentration curves of the tested compounds and calculate the IC50 values.

Row | Compound | Emax [1] [%] | pIC50 [1] | Emax [2] [%] | pEC50 [2]
1 | CC(C)[C@H](NC(=O)C(C)(F)F)[C@H](Oc1ccc2c(cnn2-c2ccc3c(c2)CCO3)c1)c1ccccc1 [WX005] | 70.7 | 8.17 | – | –
2 | CC(C)[C@H](NC(=O)C(C)(F)F)[C@H](Oc1ccc2c(cnn2-c2ccc3c(c2)CCCO3)c1)c1ccccc1 [WX006] | 73 | 7.10 | – | –
3 | CC(C)[C@H](NC(=O)C(C)(F)F)[C@H](Oc1ccc2c(cnn2-c2ccc3ncccc3c2)c1)c1ccccc1 [WX007] | 63.6 | 6.92 | – | –
4 | CC(C)[C@H](NC(=O)C(C)(F)F)[C@H](Oc1ccc2c(cnn2-c2ccc3c(c2)OCO3)c1)c1ccccc1 [WX008] | 91.4 | 7.23 | – | –
5 | C[C@H](NC(=O)C(C)(F)F)[C@H](Oc1ccc2c(cnn2-c2ccc3nccn3c2)c1)c1ccccc1 [WX012] | – | – | 103 | 10.72
6 | CC(C)[C@H](NC(=O)C(C)(F)F)[C@H](Oc1ccc2c(cnn2-c2ccc3nnnn3c2)c1)c1ccccc1 [WX024] | 54.5 | 7.49 | 31.5 | 7.11
7 | CC(C)[C@H](NC(=O)C(C)(F)F)[C@H](Oc1ccc2c(cnn2-c2cn3cnnc3cn2)c1)c1ccccc1 [WX025] | 76.1 | 7.55 | – | –
8 | CC(C)[C@H](NC(=O)C(C)(F)F)[C@H](Oc1ccc2c(cnn2-c2cnc3cnccn23)c1)c1ccccc1 [WX027] | 79 | 7.15 | – | –
9 | C[C@H](NC(=O)C(C)(F)F)[C@H](Oc1ccc2c(cnn2-c2ccn3cnnc3c2)c1)c1cc(F)cc(F)c1 [WX029] | 93.8 | 7.86 | 62.9 | 7.67
10 | CC(C)[C@H](NC(=O)C(C)(F)F)[C@H](Oc1ccc2c(cnn2-c2ccc3n[nH]c(=O)n3c2)c1)c1ccccc1 [WX031] | 54.4 | 7.37 | – | –
11 | CC(C)[C@H](NC(=O)C(C)(F)F)[C@H](Oc1ccc2c(cnn2-c2ccc3nn(C)c(=O)n3c2)c1)c1ccccc1 [WX032] | 57.4 | 7.25 | – | –
12 | CC(C)[C@H](NC(=O)C(C)(F)F)[C@H](Oc1ccc2c(cnn2-c2ccc3noc(=O)n3c2)c1)c1ccccc1 [WX033] | 71.8 | 7.94 | – | –
13 | C[C@H](NC(=O)C(C)(F)F)[C@H](Oc1ccc2c(cnn2-c2ccc3[nH]c(=O)oc3c2)c1)c1cc(F)cc(F)c1 [WX036] | 92.8 | 9.04 | 80.1 | 8.64
14 | Cc1nnc2ccc(-n3ncc4cc(O[C@H](c5cc(F)cc(F)c5)[C@H](C)NC(=O)C(C)(F)F)ccc43)cn12 [WX037] | 87.8 | 8.25 | 73 | 7.90
15 | CC(C)[C@H](NC(=O)C(C)(F)F)[C@H](Oc1ccc2c(cnn2-c2cnn(C)c2)c1)c1cc(F)cc(F)c1 [WX042] | 89 | 8.86 | 43.5 | 8.51
16 | CC(C)[C@H](NC(=O)C(C)(F)F)[C@H](Oc1ccc2c(cnn2-c2cnn(C)c2)c1)c1ccccc1 [WX045] | 73.6 | 8.17 | 55.6 | 7.89
17 | C[C@H](NC(=O)C(C)(F)F)[C@H](Oc1ccc2c(cnn2-c2cscn2)c1)c1ccccc1 [WX052] | 92.5 | 9.01 | 57.8 | 8.47
